The values below come from paper PMC11859031, “Assessment of the In Vitro Biological Activities of Schiff Base-Synthesized Copper Oxide Nanoparticles as an Anti-Diabetic, Anti-Alzheimer, and Anti-Cancer Agent” (Pharmaceutics, 2025).

What is called viability is a per cent measure of how many cells are alive, often set against a control.

One data set has as its system Bcl-2 in HepG-2 cells. Description: Bcl-2 ELISA in treated HepG-2 cells. In kind it is cell-based, human. Conditions: HepG-2 cells treated at the IC50 value, mean ± SE, n = 3. As for the experimental part:
(§1) Following the treatment of HepG-2, Caco-2, A549, and BJ-1 cells with the SB-CuO-NPs at their respective IC50 values, as illustrated in Figure 9 and detailed in Table 5, an assessment of the activities of the caspase-3 and Bcl-2 enzymes was conducted in the treated cells. […] This mechanism ultimately triggers apoptosis. Additionally, the increased activity of caspase-3 results in a decrease in the expression of cyclin D1 and CDK-2 mRNA, thereby promoting the arrest of the G1 phase of the cell cycle. Othman et al. further noted that the biosynthesized M-NPs facilitate apoptosis by inhibiting the expression of the PI3K/AKT and Ras/Raf/ERK protein signaling pathways.
(§2) Invitrogen Corporation, following the manufacturer's instructions.
(In general: ELISA stands for enzyme-linked immunosorbent assay.)

The nature of a further data set: MTT cytotoxicity, BJ-1. Conditions: human, BJ-1 normal fibroblast cells.
Data set [1] relates to normal human fibroblast (BJ-1) cell line. Description: MTT cytotoxicity, BJ-1. Conditions: Homo sapiens, Fibroblast, 48 h, read-out: Median Inhibitory Concentration (IC50) BJ-1.
For data set [2], the target named is T1, 5-LOX enzyme (human recombinant) (Homo sapiens, UniProt P09917).
T1 construct: purchased Sigma-Aldrich 437996
T1 sequence (P09917 1-674): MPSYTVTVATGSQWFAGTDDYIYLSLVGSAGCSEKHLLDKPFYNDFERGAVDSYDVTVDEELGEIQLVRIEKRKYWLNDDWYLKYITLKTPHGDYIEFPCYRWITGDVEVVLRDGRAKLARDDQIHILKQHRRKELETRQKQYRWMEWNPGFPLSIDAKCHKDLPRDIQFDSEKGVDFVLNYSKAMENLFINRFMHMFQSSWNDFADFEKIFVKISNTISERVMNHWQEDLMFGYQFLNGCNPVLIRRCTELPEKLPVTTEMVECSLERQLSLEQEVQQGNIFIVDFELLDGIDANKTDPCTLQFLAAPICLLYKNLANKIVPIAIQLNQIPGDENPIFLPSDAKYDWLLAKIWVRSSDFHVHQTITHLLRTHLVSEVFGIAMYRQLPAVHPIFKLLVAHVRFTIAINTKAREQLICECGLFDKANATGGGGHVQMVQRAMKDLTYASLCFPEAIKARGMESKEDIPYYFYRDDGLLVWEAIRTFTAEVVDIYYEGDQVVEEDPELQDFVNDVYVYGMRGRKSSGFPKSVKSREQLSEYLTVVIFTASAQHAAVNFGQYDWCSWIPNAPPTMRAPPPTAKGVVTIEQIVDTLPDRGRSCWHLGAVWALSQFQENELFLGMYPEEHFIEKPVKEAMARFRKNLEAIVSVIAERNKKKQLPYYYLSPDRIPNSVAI
Description: 5-Lipoxygenase inhibition assay. Conditions: mean ± SE, n = 3. It counts as biochemical.

Another data set deals with Bcl-2 in Caco-2 cells. Description: Bcl-2 ELISA in treated Caco-2 cells. In kind it is cell-based, human. The conditions noted are these: Caco-2 cells treated at the IC50 value, mean ± SE, n = 3. The method, then: as §1, §2
For data set [3], the system named is caspase-3 in Caco-2 cells. Description: Caspase-3 ELISA in treated Caco-2 cells. In kind it is cell-based, human. Conditions: Caco-2 cells treated at the IC50 value, mean ± SE, n = 3. As for the experimental part: as §1, §2

In brackets after ≈: the same amount, converted by molar mass.

Compound `Cc1nn(-c2ccccc2)c(Cl)c1C=NN=C1C(=O)Nc2ccccc21` [SB] had a Bcl-2 in the data set on Bcl-2 in HepG-2 cells of 7.32 ± 0.10 ng/mL. In “MTT cytotoxicity, BJ-1”, this compound had a viability at 48 h, 31.13 μg/mL of 90.9%; a viability at 48 h, 62.5 μg/mL of 80.9%; a viability at 48 h, 125 μg/mL of 62.7%; a viability at 48 h, 250 μg/mL of 47.2%. This compound came in with a viability at 48 h, 500 μg/mL in the data set “MTT cytotoxicity, BJ-1” of 19.1%. The IC50 in data set [1] stood at 168 ± 2.22 µg/mL (≈ 461 µM). Moreover, the inhibition at 100 µg/mL in data set [2] (at 100 µg/mL, read-out: 5-LOX Inhib. (%)) stood at 26.71 ± 0.18%. Besides, the IC50 in data set [2] is 36.6 µM. The Bcl-2 with Bcl-2 in Caco-2 cells is listed as 3.77 ± 0.05 ng/mL. The Caspase-3 in data set [3] is 144.28 ± 0.22 pg/mL.
